# Test results published in PubChem BioAssay (NCI).
#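 All cell lines were grown in 96-well plates and treated with compound for 48 hours. The concentration for full growth arrest is given as TGI.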
# Experiments:
# Assay in all cases: NCI anticancer screen, dose series, 48 h
# KM12 colon = system: KM12 colon
# IGROV1 ovarian = system: IGROV1 ovarian
# A498 renal = system: A498 renal
# SNB-19 CNS = system: SNB-19 CNS
# CAKI-1 renal = system: CAKI-1 renal
# MDA-N = system: MDA-N
# NCI-H226 lung = system: NCI-H226 lung
# HOP-92 NSCLC = system: HOP-92 NSCLC
# NCI-H522 lung = system: NCI-H522 lung
# SN12C renal = system: SN12C renal
# HT29 colon = system: HT29 colon
# MDA-MB-231 breast = system: MDA-MB-231 breast
# 786-0 renal = system: 786-0 renal
# HCC-2998 colon = system: HCC-2998 colon
# CCRF-CEM leukemia = system: CCRF-CEM leukemia
# SR leukemia = system: SR leukemia
# HS 578T breast = system: HS 578T breast
# SW-620 colon = system: SW-620 colon
# BT-549 breast = system: BT-549 breast
# SK-MEL-28 melanoma = system: SK-MEL-28 melanoma
smiles,measurement,setting,value
CCCCCCCCCCCCCCCCOP(=O)(O)OP(=O)(O)OCC1OC(n2cnc3c(N)ncnc32)C(O)C1O (stereo not given),TGI,KM12 colon,> 100 µM
same,TGI,IGROV1 ovarian,> 100 µM
same,TGI,A498 renal,> 100 µM
same,TGI,SNB-19 CNS,> 100 µM
same,TGI,CAKI-1 renal,> 100 µM
same,TGI,MDA-N,> 100 µM
same,TGI,NCI-H226 lung,> 100 µM
same,TGI,HOP-92 NSCLC,36.7 µM
same,TGI,NCI-H522 lung,92.8 µM
same,TGI,SN12C renal,> 100 µM
same,TGI,HT29 colon,> 100 µM
same,TGI,MDA-MB-231 breast,> 100 µM
same,TGI,786-0 renal,> 100 µM
same,TGI,HCC-2998 colon,> 100 µM
same,TGI,CCRF-CEM leukemia,86.6 µM
same,TGI,SR leukemia,78.3 µM
same,TGI,HS 578T breast,> 100 µM
same,TGI,SW-620 colon,> 100 µM
same,TGI,BT-549 breast,36.9 µM
same,TGI,SK-MEL-28 melanoma,64 µM
